According to PMC3925085, “Subditine, a New Monoterpenoid Indole Alkaloid from Bark of Nauclea subdita (Korth.) Steud. Induces Apoptosis in Human Prostate Cancer Cells” (PLoS ONE, 2014):

Columns and labels:
Assay type in all cases: cell-based
[1] = test system: LNCaP human prostate cancer cells; test: MTT cell proliferation assay, LNCaP; details: for IC50: Homo sapiens, MTT, 24 hours, LNCaP, mean ± S.D.
Procedure: (§1) Human prostate normal cell line (RWPE-1) and human prostate cancer cell lines; LNCaP and PC-3, were purchased from the American Type Culture Collection (ATCC, Manassas, Virginia, USA). LNCaP and PC-3 cells were grown in Roswell Park Memorial Institute medium (RPMI) supplemented with 10% heat-inactivated fetal bovine serum (FBS, Sigma-Aldrich, St. Louis, MO), 1% penicillin and streptomycin. RWPE-1 cells were maintained in Keratinocyte Serum Free Medium (K-SFM, ATCC) supplemented with bovine pituitary extract (BPE) and human recombinant epidermal growth factor (EGF). Mediums were supplemented with 10% heat-inactivated fetal calf serum (Sigma.), 100 U/ml penicillin and […] streptomycin (Flowlab, Sydney, Australia). All cells were maintained in a humidified atmosphere of 5% CO2 in air at 37°C incubator.
(§2) The anti-proliferative activity was evaluated by performing MTT assays as previously described with minor modifications. Briefly, cells were seeded 24 hours prior to treatment in a 96-well plate at 5×10^4 cells/well in order to obtain 70% to 80% confluent cultures. The compounds were dissolved in DMSO (Sigma Chemical Co., St. Louis, Missouri, USA) followed by a 2×serial dilution for 10 points ranged from 0.825 µM to 100 µM. The 96-well plate was incubated for 24 hours at 37°C in a humidified atmosphere with 5% CO2. At the end of incubation, 50 µl of MTT solution (2 mg/ml; Sigma) was added to each well. The plate was then incubated for 4 hours. All medium was removed and the purple formazan crystal formed at the bottom of the wells was dissolved with 200 µl DMSO for 20 minutes. The absorbance at 570 nm was read on a spectrophotometric plate reader (Hidex). The proportion of surviving cells was calculated as: […]
(§3) Dose-response curves were constructed to obtain the IC50 values. Experimental data were derived from 3 independent experiments. The selectivity index was obtained by mean IC50 RWPE-1/mean IC50 of LNCaP or PC-3.

[2] = test system: PC-3 human prostate cancer cells; test: MTT cell proliferation assay, PC-3; details: for IC50: Homo sapiens, MTT, 24 hours, PC-3, mean ± S.D.
Procedure: as §1, §2, §3

[3] = test system: RWPE-1 human normal prostate epithelial cells; test: MTT cell proliferation assay, RWPE-1; details: 24 hours, RWPE-1 normal cells, mean ± S.D.
Procedure: as §1, §2, §3

IC50 [1] [µM] | IC50 [2] [µM] | Structure (SMILES) | IC50 [3] [µM] | selectivity index (SI) LNCaP ([1]; mean IC50 RWPE-1/mean IC50 of LNCaP) | selectivity index (SI) PC-3 ([2]; mean IC50 RWPE-1/mean IC50 of PC-3)
58.09 ± 0.05 | 67.3 ± 0.87 | CC(O)c1cncc2c(=O)n3c(cc12)-c1[nH]c2ccccc2c1CC3 (centres unmarked) [Angustoline, 1-(1-Hydroxyethyl)-7,8-dihydroindolo[2,3-a]pyridine[3,4-g]quinolizin-5(13H)-one] | 65.94 ± 0.04 | – | –
140.27 ± 0.1 | 84.9 ± 1.48 | Cc1cc2cc3n(c(=O)c2cn1)CCc1c-3[nH]c2ccccc12 [Angustidine, angustidine] | 36.07 ± 0.05 | – | –
1.27 ± 0.04 | 1.33 ± 0.02 | CC(=O)O[C@H]1C(=O)[C@@]2(C)[C@H]([C@H](OC(=O)c3ccccc3)[C@]3(O)C[C@H](OC(=O)[C@H](O)[C@@H](NC(=O)c4ccccc4)c4ccccc4)C(C)=C1C3(C)C)[C@]1(OC(C)=O)CO[C@@H]1C[C@@H]2O [Paclitaxel, paclitaxel, reference compound] | 1.58 ± 0.06 | 1.24 | 1.19
86.35 ± 0.09 | 92.1 ± 1.28 | O=c1c2cnccc2cc2n1CCc1c-2[nH]c2ccccc12 [Nauclefine, nauclefine] | 72.85 ± 0.06 | – | –
149.16 ± 0.09 | 122 ± 3.73 | C=Cc1cncc2c(=O)n3c(cc12)-c1[nH]c2ccccc2c1CC3 [Angustine, angustine] | 98.39 ± 0.1 | – | –
